Here are results for 16 sequences from patent publication US20200297760A1, “COMPOSITIONS AND METHODS FOR REDUCING IMMUNE RESPONSES AGAINST CHIMERIC ANTIGEN RECEPTORS” (Juno Therapeutics, Inc., priority 2015, published 2020).

No end group written: not given here.

In test [1] the test system is PBMCs of subjects treated with CD19-specific CAR T cells. The experiment in a line: ELISpot assay for specific immune response to individual CAR peptides. Format: cell-based, human. The settings on record: PBMCs of patients with detected CAR-specific immune response after CD19 CAR T cell infusion. The procedure:
Individual ELISpot assays were performed using an anti-cytokine capture antibody to assess the presence or absence of a specific immune response for each of these individual hits (see Berger et al. (2006); Berger et al. (2001); Riddell et al. (1996); and Berger et al. (2005), supra). Specific immune responses against peptides with sequences within the VH portion of the scFv of the CAR were detected in both patients assessed (including regions within the FR1, CDR1, and FR2 regions for one patient and within the FR3 for the other). […] These two overlapping 15-mer peptides had the amino acid sequences […] (SEQ ID NO: 8) and […] (SEQ ID NO: 9, also set forth in SEQ ID NO:165), respectively. In another study following administration with a different CAR having a murine scFv, CD28 transmembrane and costimulatory domains and a CD3 zeta domain, using similar methods, an immune response also was detected for one subject against a pool containing VH portions of an anti-CD19 scFv and for another subject in a pool containing junction portions.

In test [2] the target is HLA-A*11:01 (Homo sapiens, UniProt P04439, A114D/D185E/E176A/F33Y/L180Q/S129P/T187R). The experiment in a line: REVEAL Epitope Discovery System in vitro MHC-peptide binding assay. Conditions: binding normalized to positive control peptide set at 100%, >50 considered good or high affinity binding. On the procedure:
(§1) Actual binding affinities for certain HLA class I alleles (A*02:01, A*03:01, A*11:01, and B*08:01) were assessed in vitro for exemplary overlapping 9 amino acid peptide sequences within a portion of the 26 amino acid junction region spanning the CD28 and 4-1BB junction. Specifically, assessment was of a series of overlapping 9-mer peptides derived from the sequence […] (set forth in SEQ ID NO: 7), which contains a portion of the CD28 transmembrane domain and 4-1BB costimulatory domain spanning the junction between the domains (bond joining the two amino acids noted in underline). In addition, a series of overlapping 9-mer peptides of each of a number of different variants of this portion also were assessed, each variant containing a mutation or mutations in this region as described in Example 2.
(§2) The various 9-mer overlapping peptides were synthesized and their purity tested by MALDI-TOF Mass Spectrometry. The synthetic peptides were then incubated with recombinant MHC molecules to assess binding properties using the REVEAL Epitope Discovery System, which is a high-throughput binding assay that measures the degree to which each peptide is able to stabilize a ternary MHC-peptide complex (Prolmmune, Oxford, United Kingdom). Each peptide was separately tested for this ability with respect to each of the HLA class I alleles, normalized to the degree observed for a positive control (known T cell epitope for the relevant allele). The results are reported as a score, in which the binding was normalized to the positive control peptide set at 100%. In this analysis, a score of greater than 50 generally was considered to represent good or high affinity binding.

The target of test [3] is HLA-B*08:01 (Homo sapiens, UniProt P01889, A93T/A95T/D138N/E176V/E187T/K202T/Q94N/R180D/S35A/V36M/Y33D/Y91F). Described as above. The settings on record: binding normalized to positive control peptide set at 100%, >50 considered good or high affinity binding. The procedure:
as §1, §2

The target of test [4] is HLA-A*02:01 (Homo sapiens, UniProt P04439, D140Y/D185E/D98H/E176V/E277Q/G131W/G231S/I119V/I121R/I166T/I218V/L300P/L318F/N151K/N90K/P208A/P217A/Q86G/Q94H/R138H/R169H/T345S). Described as above. Conditions: binding normalized to positive control peptide set at 100%, greater than 50 considered good or high affinity binding. On the procedure:
as §1, §2

For test [5], the target named is HLA-A*03:01 (Homo sapiens, UniProt P04439). Described as above. Conditions: REVEAL score, binding normalized to positive control peptide set at 100%; greater than 50 considered good or high affinity binding. The procedure: as §1, §2

For AFIIFWVKRGRKKLL, the “specific immune response against peptide (ELISpot)” value in test [1] is on record as “specific immune responses also were detected”.

As to FWVKRGRKKLLYIFK, the “specific immune response against peptide (ELISpot)” value in test [1] was “specific immune responses also were detected”.

In the case of WVHRGRKKL, the “A*11:01 In Vitro Score” value in test [2] came out at 5.60. Further, in test [3], the “B*08:01 In Vitro Score” value came out at 19.20. The “A*02:01 In Vitro Score” value in test [4] came to 1.60. For the same sequence, in test [5], the “A*03:01 In Vitro” value turned out to be 3.40.

In the case of WVKRGAKKL, the “A*11:01 In Vitro Score” value in test [2] worked out at 4.60. Besides, the “B*08:01 In Vitro Score” value in test [3] stood at 34.10. The “A*02:01 In Vitro Score” value in test [4] was found to be 4.70. Further, the “A*03:01 In Vitro” value in test [5] is given as 4.10.

For WVKRGHKKL, in test [2], the “A*11:01 In Vitro Score” value was 2.80. For the same sequence, the “B*08:01 In Vitro Score” value in test [3] came out at 47.60. The “A*02:01 In Vitro Score” value in test [4] is 3.90. For the same sequence, the “A*03:01 In Vitro” value in test [5] came out at 1.40.

Take WVKRGLKKL: the “A*11:01 In Vitro Score” value in test [2] worked out at 22.10. Further, the “B*08:01 In Vitro Score” value in test [3] stood at 65.70. For the same sequence, the “A*02:01 In Vitro Score” value in test [4] came to 24.50. The “A*03:01 In Vitro” value in test [5] was found to be 10.00.

On to WVKRGNKKL, for which the “A*11:01 In Vitro Score” value in test [2] came to 4.10. For the same sequence, the “B*08:01 In Vitro Score” value in test [3] is 65.90. The “A*02:01 In Vitro Score” value in test [4] worked out at 2.40. The “A*03:01 In Vitro” value in test [5] is 0.90.

For WVKRGRKKA, the “A*11:01 In Vitro Score” value in test [2] is 3.10. For the same sequence, the “B*08:01 In Vitro Score” value in test [3] was 3.10. Besides, the “A*02:01 In Vitro Score” value in test [4] is reported as 4.50. The “A*03:01 In Vitro” value in test [5] is on record as 0.90.

In the case of WVKRGRKKL, the “A*11:01 In Vitro Score” value in test [2] is reported as 4.80. For the same sequence, the “B*08:01 In Vitro Score” value in test [3] was found to be 28.50. Also, the “A*02:01 In Vitro Score” value in test [4] was 1.40. For the same sequence, the “A*03:01 In Vitro” value in test [5] turned out to be 13.10.

As for WVKRGRKKS, the “A*11:01 In Vitro Score” value in test [2] came out at 6.70. In test [3], the “B*08:01 In Vitro Score” value was determined as 4.30. The “A*02:01 In Vitro Score” value in test [4] was 3.90. Further, the “A*03:01 In Vitro” value in test [5] came out at 0.90.

For the sequence WVKRGSKKL, the “A*11:01 In Vitro Score” value in test [2] is on record as 11.80. In test [3], the “B*08:01 In Vitro Score” value is 56.10. The “A*02:01 In Vitro Score” value in test [4] stood at 3.00. For the same sequence, in test [5], the “A*03:01 In Vitro” value amounted to 1.90.

Regarding WVLRGRKKL, the “A*11:01 In Vitro Score” value in test [2] was 3.20. Besides, the “B*08:01 In Vitro Score” value in test [3] is given as 4.00. The “A*02:01 In Vitro Score” value in test [4] came to 2.40. Besides, the “A*03:01 In Vitro” value in test [5] came out at 0.70.

Regarding WVQRGAKKL, the “A*11:01 In Vitro Score” value in test [2] is listed as 3.80. Further, the “B*08:01 In Vitro Score” value in test [3] was 11.40. Besides, the “A*02:01 In Vitro Score” value in test [4] is listed as 3.00. Also, in test [5], the “A*03:01 In Vitro” value was 2.00.

For WVQRGNKKA, the “A*11:01 In Vitro Score” value in test [2] stood at 0.80. Moreover, in test [3], the “B*08:01 In Vitro Score” value turned out to be 0.70. For the same sequence, the “A*02:01 In Vitro Score” value in test [4] amounted to 1.90. The “A*03:01 In Vitro” value in test [5] is recorded as 1.20.

Turning to WVQRGNKKL, in test [2], the “A*11:01 In Vitro Score” value worked out at 10.70. Besides, in test [3], the “B*08:01 In Vitro Score” value came out at 32.00. Besides, in test [4], the “A*02:01 In Vitro Score” value is listed as 4.30. Besides, the “A*03:01 In Vitro” value in test [5] is on record as 1.50.

WVSRGRKKL: the “A*11:01 In Vitro Score” value in test [2] came to 4.40. In test [3], the “B*08:01 In Vitro Score” value was 6.20. Besides, the “A*02:01 In Vitro Score” value in test [4] came to 2.30. The “A*03:01 In Vitro” value in test [5] was determined as 2.10.
